According to the supplement of paper PMC10290057:
Where a name gives a salt, the structure may show the parent alone.

System: HCT116
Test: efficacy (fitted maximal change in viability relative to DMSO control); higher = less cytotoxic (negative = loss of viability)
Settings: 48 h
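Further: Luminescence-based viability readout, five doses per compound, normalized against on-plate DMSO and empty-well controls, followed by dose-response curve fitting for every drug.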

Row | Compound | efficacy [%]
1 | CC1(C)Cc2c(-c3ccccc3)c(-c3ccc(Cl)cc3)c(CC(=O)O)n2C1 [Licofelone] | -36.6
2 | Clc1ccccc1CN1CCc2sccc2C1 [Ticlopidine hydrochloride] | -21.1
3 | CCOC(=O)c1ccc(C#Cc2ccc3c(c2)C(C)(C)CCS3)nc1 [Tazarotene] | -38.2
4 | CN1CC[C@@H](NC(=O)Nc2ccc(C#N)cc2)C[C@@H]1c1nc2ccccc2[nH]1 [Glasdegib] | -8.71
5 | N#Cc1ccc(N(Cc2ccc(Br)cc2)n2cnnc2)cc1 [YM-511] | -14.3
6 | CO[C@H]1/C=C/O[C@@]2(C)Oc3c(C)c(O)c4c(O)c(c(/C=N\N5CCN(C6CCCC6)CC5)c(O)c4c3C2=O)NC(=O)/C(C)=C\C=C\[C@H](C)[C@H](O)[C@@H](C)[C@@H](O)[C@@H](C)[C@H](OC(C)=O)[C@@H]1C [Rifapentine] | -59.1
7 | Nc1ncc(C(=O)NC2CN(C(=O)C3CC3)C2)c2ccc(-c3cccc(F)c3)nc12 [GNE-495] | -23.5
8 | COc1cc2ncn(-c3cc(OCc4ccccc4[S+](C)(=O)[O-])c(C#N)s3)c2cc1OC [IKK-3 Inhibitor IX] | -13.8
9 | NCCCC(N)(C(=O)O)C(F)F (stereo not drawn) [Eflornithine Hydrochloride] | 19
10 | COc1cc([C@@H]2c3cc4c(cc3[C@H](O)[C@H]3COC(=O)[C@H]23)OCO4)cc(OC)c1OC [Podofilox] | -62.3
11 | OC1=CC2=C(C(=O)\C=C(/O2)C3=CC=CC=C3)C(=C1O)O [Baicalein] | -14.7
12 | CO[C@@]12[C@H](COC(N)=O)C/3=C(N1C[C@@H]4N[C@H]24)/C(=O)/C(=C(N)\C3=O)C [Mitomycin C] | -11.2
13 | NC[C@H](O)c1ccc(O)c(O)c1 [Noradrenaline bitartrate monohydrate] | 10.7
14 | CNC(=O)CN1CCC(Oc2cc3c(Nc4cccc(Cl)c4F)ncnc3cc2OC)CC1 [Sapitinib] | -49.3
15 | NNCCc1ccccc1.O=S(=O)(O)O [Phenelzine] | -40.1
16 | CC1=C(C=CC=C1)N2\C(=N/C3=C(C(=CC=C3)C)C2=O)C[N]4N=CC5=C4N=CN=C5N [PIK-293] | -6.78
17 | O=C1CC(c2c[nH]c3ccc(F)cc23)C(=O)N1 (stereo not drawn) | -7.69
18 | CC(C)(C)c1nc(-c2cccc(N[S+](=O)([O-])c3c(F)cccc3F)c2F)c(-c2ccnc(N)n2)s1 [Dabrafenib] | -29.3
19 | N=C1N[C@H]2[C@H](CS[C@H]2CCCCC(=O)O)N1 [2-Iminobiotin] | 16
20 | CCOc1ccc(Nc2nc(-c3c(C)nc4ccccn34)cs2)cc1 [JK-184] | -56.2
21 | C\C1=N\N(C(=O)C1)C2=CC=CC=C2 [Edaravone] | -11.9
22 | O=C(NC[C@H](O)CN1CCc2ccccc2C1)c1cc(NC2COC2)ncn1 | 13
23 | O=[S+]([O-])(c1cccc2c(I)cccc12)N1CCCNCC1 [ML-7] | -56.9
24 | O=C([O-])Cc1ccccc1Nc1c(Cl)cccc1Cl [Diclofenac sodium] | -6.7
25 | Cc1nnc(C(C)C)n1C1CC2CCC(C1)N2CC[C@H](NC(=O)C1CCC(F)(F)CC1)c1ccccc1 (stereo partly drawn) [Maraviroc] | -6.73
26 | COC(c1ccccc1)(c1ccccc1)[C@H](Oc1nc(C)cc(C)n1)C(=O)O [Ambrisentan] | -8.06

Row | Compound | efficacy [%]
27 | COC[C@@H](NC(C)=O)C(=O)NCc1ccccc1 [Lacosamide] | -14.4
28 | Cc1ccc(NC(=O)Nc2nnc(Sc3ncnc4cc(OCCCN5CCOCC5)ccc34)s2)cc1 [SKLB4771] | -24.1
29 | Nc1cccc2c1CN([C@H]1CCC(=O)NC1=O)C2=O [Lenalidomide] | -14
30 | c1ccc2[nH]c(-c3cscn3)nc2c1 [Thiabendazole] | -7.02
31 | CO[C@@H]1COCC[C@@H]1N[C@@H]1CC[C@@](C(=O)N2CCc3ncc(C(F)(F)F)cc3C2)(C(C)C)C1 [MK-0812] | -11.1
32 | CC#CC(=O)N1CCC[C@H]1c1nc(-c2ccc(C(=O)Nc3ccccn3)cc2)c2c(N)nccn12 [Acalabrutinib] | -13.7
33 | CC/1=C2/N(C(=O)C(=C1)/NC3=CC(=NC=N3)N)C4(CCCCC4)NC2=O [eFT508] | -7.54
34 | CN(CCOc1ccc(-c2ccc3c(c2)OCO3)cc1C(C)(C)C)CC(=O)O | -58.3
35 | OC1=CC2=C(C=C1)C(=O)\C(=C(O2)\C3=CC(=C(O)C=C3)O)O [Fisetin] | -56.3
36 | O=C(O)/C(S)=C/c1ccc(I)cc1 | -6.45
37 | CCNC(=O)Nc1ncc(-c2cc(-c3c(C)cc(OC)cc3C)nc(-c3cnccn3)n2)s1 [BMS-4] | 14
38 | CN(C)CC(C)(C)CNc1nn2c(-c3ccccc3)nnc2cc1C1CCC1 [Akt-I-1] | -8.48
39 | COc1ccc(Cc2ccc(NC(N)=O)cc2)cc1-c1cccc(Cl)c1 | -74.8
40 | CC1CNc2c(cccc2[S+](=O)([O-])N[C@@H](CCCNC(=N)N)C(=O)N2CC[C@@H](C)C[C@@H]2C(=O)O)C1 (stereo partly drawn) [Argatroban] | -15.9
41 | COc1c(Cl)cc2c([nH]c3cnccc32)c1NC(=O)c1cccnc1C [MLN-120B] | -95.3
42 | CC(C)(Oc1ccc(C2CC2(Cl)Cl)cc1)C(=O)O (stereo not drawn) [Ciprofibrate] | -6.71
43 | C[C@]12CC(=O)[C@H]3[C@@H](CC\C4=C\C(=O)\C=C/[C@]34C)[C@@H]1CC[C@]2(O)C(=O)CO [Prednisone] | 8.5
44 | O=C(C1CCCCC1)N1CC(=O)N2CCc3ccccc3C2C1 (stereo not drawn) [Praziquantel] | -15.9
45 | CN(Cc1ccccc1)C(=O)c1ccc([S+](=O)([O-])Nc2ccccc2)cc1 [Compound 2] | -20.4
46 | C=C(c1ccc(C(=O)O)cc1)c1cc2c(cc1C)C(C)(C)CCC2(C)C [Bexarotene] | -19.6
47 | C[C@]12CCC(=O)C(O)=C1CC[C@@H]1[C@@H]2CC[C@]2(C)C(=O)CC[C@@H]12 [Formestane] | 24.5
48 | CC(C)(N[S+](=O)([O-])c1ccc2c(Cl)cnc(NC(=N)N)c2c1)C(=O)O | -7.17
49 | CC(C)C1CCC(C(=O)N[C@H](Cc2ccccc2)C(=O)O)CC1 (stereo partly drawn) [Nateglinide] | -11
50 | Cc1ccsc1C(=CCCN1CCC[C@@H](C(=O)O)C1)c1sccc1C [Tiagabine hydrochloride] | -8.94
51 | CC1=CC(=CC=C1)OC/2=C/NC(=O)/N=C2 [Tolimidone] | 6.41
52 | CCCc1nc(C(C)(C)O)c(C(=O)O)n1Cc1ccc(-c2ccccc2-c2nn[nH]n2)cc1 [Olmesartan] | -6.46

Row | Compound | efficacy [%]
53 | C[S+](=O)([O-])c1cc(F)cc2c3c(n(Cc4ccc(Cl)cc4)c12)[C@@H](CC(=O)O)CC3 [Laropiprant] | -18.4
54 | Cc1nc(C)c(CN2CCN(C(c3ccc(F)cc3)c3ccc(F)cc3)CC2)nc1C [CXC-195] | -77.3
55 | CN1\C(=C(\O)C2=C(C=CS2)[S+]1([O-])=O)C(=O)NC3=CC=CC=N3 [Tenoxicam] | -10.7
56 | CC(=O)O/N=C1\C(=O)N(Cc2cc(Cl)ccc2Cl)c2ccc(Cl)cc21 | -71.8
57 | O=C1CCC(N2C(=O)c3ccccc3C2=O)C(=O)N1 (stereo not drawn) [Thalidomide] | -16.7
58 | CC(=O)Nc1ccc(C(=O)NC(C)(C)C)cc1 [CPI-1189] | -10.3
59 | COc1ccc(CCN2CCN(CCCc3ccccc3)CC2)cc1OC [Cutamesine hydrochloride] | -28.5
60 | Cc1ccnc(N[S+](=O)([O-])c2ccc(NC(=O)Nc3ccc([S+](=O)([O-])Nc4nccc(C)n4)cc3)cc2)n1 | -21.3
61 | CNC(=O)[C@H](Cc1ccccc1)NC(=O)[C@H](CC(C)C)[C@H](CSc1cccs1)C(=O)NO [Batimastat] | -46.2
62 | Cc1ncc([N+](=O)[O-])n1CC(C)O (stereo not drawn) [Secnidazole] | -13.5
63 | CC1=C(CC(=O)O)c2cc(F)ccc2/C1=C\c1ccc([S+](C)[O-])cc1 (stereo not drawn) [Sulindac] | -20.4
64 | C=C(C)[C@@H]1CC[C@]2(C(=O)O)CC[C@]3(C)[C@H](CC[C@@H]4[C@@]5(C)CC[C@H](O)C(C)(C)[C@@H]5CC[C@]43C)[C@@H]12 [Betulinic acid] | 14.5
65 | CC(C)C[C@H](NC(=O)[C@H](Cc1ccccc1)NC(=O)OCc1ccccc1)C(=O)C=O [Cathepsin S Inhibitor] | -64.5
66 | O=C(O)CCNC(=O)c1ccc(/N=N/c2ccc(O)c(C(=O)O)c2)cc1 [Balsalazide disodium] | -11.7
67 | CCN(CC)C(=O)Cc1csc(N[S+](=O)([O-])c2cccc(Cl)c2C)n1 | -27.3
68 | COc1cc(NC(=O)c2ccc(-c3ccc(Cl)cc3)o2)cc(OC)c1 | -43.9
69 | CCO[C@@H]1OC(=O)C[C@@H]1NC(=O)[C@@H]1CCCN1C(=O)[C@@H](NC(=O)c1ccc(N)c(Cl)c1)C(C)(C)C [VX-765] | 23.5
70 | Cc1cc(-c2ccc(CC(=O)Nc3ccc(-c4cccnc4)cc3)cc2)ccn1 [Wnt-C59] | -33.8
71 | COc1cc(C)c(/C=C/C(C)=C/C=C/C(C)=C/C(=O)O)c(C)c1C [Acitretin] | -17.3
72 | COC1=CC=CC2=C1C(=C(/C(=O)N(C)C3=CC=C(C=C3)C(F)(F)F)C(=O)N2C)/O [Tasquinimod] | -6.06
73 | COC1=CC=C(C=C1)/C2=C(O)/C(=O)C3=C(O)C=C(O)C(=C3O2)CC=C(C)C [Icaritin] | -16.5
74 | CN(C(Cc1ccc(OS(=O)(=O)c2cccc3cnccc23)cc1)C(=O)N1CCN(c2ccccc2)CC1)S(=O)(=O)c1cccc2cnccc12 (stereo not drawn) [KN-62] | -21.2
75 | COc1cc(SC)ccc1C(=O)N1CCC(Cc2ccccc2)CC1 [JX-401] | -43.4
76 | O=C(O)CCc1ccc(NCc2cccc(Oc3ccccc3)c2)cc1 [GW-9508] | -8.05
77 | O=C(Nc1cccnc1)c1cc(-c2ccnc(F)c2)ccc1OCc1ccccc1 | -24.6
78 | CCOC1=CC=C(C=C1)N2C(=O)C3=CC=CN=C3/N=C2/[C@@H](C)N(CC4=CC=CN=C4)C(=O)CC5=CC=C(F)C(=C5)C(F)(F)F | -9.22
